The text below walks through data of patent US7074798B2, “Xanthine derivative and DPPIV inhibitor” (Eisai Co., Ltd, priority 2002, dated 2006).

Counter-ions that a name gives are not always drawn.

For one assay, the system named is male C57BL/6N mouse. The assay is described as follows: Effect on glucose tolerance of normal mouse (oral glucose loading). The format is in vivo. Conditions: 2 h, 0.3 mg/kg oral, 30 min before glucose 2 g/kg, AUC0-120, 0.5% MC = 100%, NVP DPP728 10 mg/kg = 0%, lower = better, read-out: Improvement degree of glucose tolerance. The method, then:
Effect on Glucose Tolerance of Normal Mouse
male C57BL/6N mouse (purchased from CHARLES RIVER JAPAN, INC.)
A suspension of the test compound and NVP DPP728 or 0.5% MC solution (solvent control group) were orally administered at a dose of 10 mL/kg, and after 30 minutes, glucose solution was orally administered at a dose of 10 mL/kg. Glucose was orally administered at a dose of 2 g/kg.
Immediately before the administration of the test substance and NVP DPP728, immediately before the administration of the glucose solution and at 30 minutes, 60 minutes, and 120 minutes after the administration, a tail vein of the mouse was injured to slightly bleed by a razor under no anesthesia. 10 μl of blood was collected and was immediately mixed with 0.6M perchloric acid (140 μl). Glucose in the supernatant obtained by centrifugation (1500 g, 10 minutes, 4° C., refrigerated centrifuge GS-6KR, Beckman Instruments, Inc.) was measured using Glucose CII-Test Wako (Wako Pure Chemical Industries, Ltd.).
Area under the curve of blood glucose level-time (AUC0-120; Area Under the Curve) from the time of administration of glucose to 120 minutes after administration was calculated for respective administration groups, i.e., 0.5% MC solution, NVP DPP728, and the test compounds. Taking the AUC0-120 of the 0.5% MC solution administration group as 100% and the AUC0-120 of NVP DPP728 (10 mg/kg) administration group as 0%, the improvement degree of the glucose tolerance of a test compound was calculated using the following formula: Improvement degree of the glucose tolerance (%)=(AUC0-120 of the test compound−AUC0-120 of the NVP DPP728 (10 mg/kg) administration group)/(AUC0-120 of the 0.5% MC solution administration group−AUC0-120 of the NVP DPP728 (10 mg/kg) administration group)×100. • The lower the % value, the greater the improvement degree of the glucose tolerance will be.
For `CC#CCn1c(N2CCNCC2)nc2c1c(=O)n(CC(=O)c1ccccc1)c(=O)n2C` [Example 30, 7-(2-Butynyl)-3-methyl-1-(2-oxo-2-phenylethyl)-8-(piperazin-1-yl)-3,7-dihydropurine-2,6-dione trifluoroacetate], the response vs control in vivo at 0.3 mg/kg amounted to 49.4%.

Staying with this assay, now noted: 2 h, 1 mg/kg oral, 30 min before glucose 2 g/kg, AUC0-120, 0.5% MC = 100%, NVP DPP728 10 mg/kg = 0%, lower = better, read-out: Improvement degree of glucose tolerance.
Consider `CC#CCn1c(N2CCNCC2)nc2c1c(=O)[nH]c(=O)n2C` [Example 14, 7-(2-Butynyl)-3-methyl-8-(piperazin-1-yl)-3,7-dihydropurine-2,6-dione], for which the response vs control in vivo at 1 mg/kg was determined as 41.9%.

`CC#CCn1c(N2CCNCC2)nc2c1c(=O)n(CC(=O)c1ccccc1)c(=O)n2C` [Example 30, 7-(2-Butynyl)-3-methyl-1-(2-oxo-2-phenylethyl)-8-(piperazin-1-yl)-3,7-dihydropurine-2,6-dione trifluoroacetate]: the response vs control in vivo at 1 mg/kg is -14.3%.

As for `CC#CCn1c(N2CCNCC2)nc2c1c(=O)n(Cc1ccccc1C#N)c(=O)n2C` [Example 39, 2-[7-(2-Butynyl)-3-methyl-2,6-dioxo-8-(piperazin-1-yl)-2,3,6,7-tetrahydropurin-1-ylmethyl]-benzonitrile trifluoroacetate], the response vs control in vivo at 1 mg/kg was 45.5%.

The assay is the same for the next values; noted with them: 2 h, 3 mg/kg oral, 30 min before glucose 2 g/kg, AUC0-120, 0.5% MC = 100%, NVP DPP728 10 mg/kg = 0%, lower = better, read-out: Improvement degree of glucose tolerance.
For the molecule `CC#CCn1c(N2CCNCC2)nc2c1c(=O)n(C)c(=O)n2C` [Example 10, 7-(2-Butynyl)-1,3-dimethyl-8-(piperazin-1-yl)-3,7-dihydropurine-2,6-dione], the response vs control in vivo at 3 mg/kg was 0.5%.

Take `CC#CCn1c(N2CCNCC2)nc2c1c(=O)n(CC(=O)OC)c(=O)n2C` [Example 15, [7-(2-Butynyl)-3-methyl-2,6-dioxo-8-(piperazin-1-yl)-2,3,6,7-tetrahydropurin-1-yl]acetic acid methyl ester trifluoroacetate]: the response vs control in vivo at 3 mg/kg was -17.2%.

As to `CC#CCn1c(N2CCNCC2)nc2c1c(=O)n(CCOCC)c(=O)n2C` [Example 18, 7-(2-Butynyl)-1-(2-ethoxyethyl)-3-methyl-8-(piperazin-1-yl)-3,7-dihydropurine-2,6-dione trifluoroacetate], the response vs control in vivo at 3 mg/kg was determined as 9.5%.

`C#CCn1c(=O)c2c(nc(N3CCNCC3)n2CC#CC)n(C)c1=O` [Example 19, 7-(2-Butynyl)-3-methyl-8-(piperazin-1-yl)-1-(2-propynyl)-3,7-dihydropurine-2,6-dione trifluoroacetate]: the response vs control in vivo at 3 mg/kg is -13.1%.

As to `CC#CCn1c(=O)c2c(nc(N3CCNCC3)n2CC#CC)n(C)c1=O` [Example 20, 1,7-Bis(2-butynyl)-3-methyl-8-(piperazin-1-yl)-3,7-dihydropurine-2,6-dione trifluoroacetate], the response vs control in vivo at 3 mg/kg is 5%.

Take `CC#CCn1c(N2CCNCC2)nc2c1c(=O)n(CC#N)c(=O)n2C` [Example 21, [7-(2-Butynyl)-3-methyl-2,6-dioxo-8-(piperazin-1-yl)-2,3,6,7-tetrahydropurin-1-yl]acetonitrile trifluoroacetate]: the response vs control in vivo at 3 mg/kg was 4.8%.

For `COc1ccccc1-n1c(N2CCNCC2)nc2c1c(=O)n(C)c(=O)n2C` [Example 123, 7-(2-Methoxyphenyl)-1,3-dimethyl-8-(piperazin-1-yl)-3,7-dihydropurine-2,6-dione trifluoroacetate], the response vs control in vivo at 3 mg/kg came to 17.9%.

As to `C=Cc1ccccc1-n1c(N2CCNCC2)nc2c1c(=O)n(C)c(=O)n2C` [Example 147, 7-(2-Vinylphenyl)-1,3-dimethyl-8-(piperazin-1-yl)-3,7-dihydropurine-2,6-dione trifluoroacetate], the response vs control in vivo at 3 mg/kg was 13%.

In the case of `Cn1c(=O)[nH]c(=O)c2c1nc(N1CCNCC1)n2-c1ccccc1Cl` [Example 156, 7-(2-Chlorophenyl)-3-methyl-8-(piperazin-1-yl)-3,7-dihydropurine-2,6-dione trifluoroacetate], the response vs control in vivo at 3 mg/kg is 0.9%.

On to `COc1ccccc1-n1c(N2CCNCC2)nc2c1c(=O)n(CC#N)c(=O)n2C` [Example 166, [7-(2-Methoxyphenyl)-3-methyl-2,6-dioxo-8-(piperazin-1-yl)-2,3,6,7-tetrahydropurin-1-yl]acetonitrile trifluoroacetate], for which the response vs control in vivo at 3 mg/kg stood at 16.1%.
